Results as given in patent publication EP0420798B1, “Antimicrobial compositions” (Ciba Vision AG, Hettlingen, priority 1989, dated 1991).

How the values were obtained:
[1] = 5-day ocular tolerance test in animals; assay type: in vivo, Kaninchen
Text: Die überraschenderweise verbesserte Augenverträglichkeit der Verbindungen der Formel I im Vergleich zu Benzalkoniumchlorid wird z.B. aus den Ergebnissen der im folgenden beschriebenen 5-Tage-Verträglichkeitsprüfung beim Tier deutlich: Verglichen wurden jeweils 0,01 %-ige Lösungen von Benzoxoniumchlorid und Benzalkoniumchlorid. Diese Lösungen wurden 5 Tage lang fünfmal (in 90 Minuten-Invervallen) in den Konjunktivalsack von Kaninchen eingetropft. Am Ende des Versuchs wurden die behandelten Augen auf Klinische Befunde, wie z.B. Rötungen der Konjunktiva, Korneatrübungen, Sekretion und Bindehautschwellungen, untersucht. Dabei ergaben sich die folgenden Resultate: Brenzoxoniumchlorid (≙ Verbindung der Formel I), 0,01 % 5 Instillationen/Tier/Tag im Abstand von jeweils 90 min keine Befunde Benzalkoniumchlorid (≙ Vergleichsverbindung), 0,01 % 5 Instillationen/Tier/Tag im Abstand von jeweils 90 min 4 Befunde

[2] = 4-week ocular local tolerance study in rabbits; assay type: in vivo, pigmentierte Himalayakaninchen; settings: 0,01 % solution, 50 µl ten times daily at 45 min intervals into conjunctival sac of right eye for 4 weeks; histopathology at end; animals with conjunctival lesions and acanthosis/hyperkeratosis at margin of lower right eyelid
Text: Die bessere Augenverträglichkeit der Verbindungen der Formel I im Vergleich zu Benzalkoniumchlorid wird z.B. auch aus den Ergebnissen der im folgenden beschriebenen 4 Wochen dauernden okularen, lokalen Verträglichkeitsstudie beim Kaninchen deutlich: Verglichen wurden jeweils 0,01 %-ige Lösungen von N-Benzyl-N-(gemischtes C₈-C₁₈-Alkyl)-N,N-bis-(2-hydroxyethyl)-ammoniumchlorid und Benzalkoniumchlorid. Als Versuchstiere dienten pigmentierte Himalayakaninchen. Diesen wurden 4 Wochen lang zehnmal täglich (in 45 Minuten-Intervallen) jeweils 50 µl der entsprechenden Lösung in den Konjunktivalsack des rechten Auges verabreicht. Zur Kontrolle wurde in das linke Auge jeweils eine Vergleichslösung, die kein Konservierungsmittel enthielt, eingetropft. Die Tiere wurden am ersten und am fünften Behandlungstag ophthalmologisch untersucht. […] Dagegen wurden bei 4 von 6 mit Benzalkoniumchloridlösung behandelten Tieren Läsionen in der Konjunktiva und eine Akanthose und Hyperkeratose am Rand des unteren rechten Augenlids beobachtet. Die Benzalkoniumchloridlösung verursachte demnach Aenderungen am konjunktivalen Epithel, welche bei der erfindungsgemässen Lösung nicht auftraten. Damit ist überzeugend nachgewiesen, dass die Verbindungen der Formel I eine im Vergleich zu Benzalkoniumchlorid überraschend verbesserte Langzeitverträglichkeit im Auge besitzen.

[3] = system: C. albicans; experiment: Preservative challenge test; assay type: cell-based; parameters: key to Reduktion des Wachstums: k. W.: k.W.: kein Wachstum; settings: 0,1 mg/ml, pH 6, inoculum 9,9•10^5/ml
Text: (§1) Die konservierende Wirkung der Verbindungen der Formel I wird z.B. aus den Ergebnissen des folgenden Konservierungsmittelbelastungstests deutlich: […]

[4] = system: E. coli; experiment: Preservative challenge test; assay type: cell-based; parameters: key to Reduktion des Wachstums: k. W.: k.W.: kein Wachstum; settings: 0,1 mg/ml, pH 6, inoculum 1,5•10^6/ml
Text: as §1

[5] = system: St. aureus; experiment: Preservative challenge test; assay type: cell-based; parameters: key: k. W.: k.W.: kein Wachstum; settings: 0,1 mg/ml, pH 6, inoculum 1,4•10^6/ml
Text: as §1

[6] = system: Ps. aeruginosa; experiment: Preservative challenge test; assay type: cell-based; parameters: key: k. W.: k.W.: kein Wachstum; settings: 0,1 mg/ml, pH 6, inoculum 1,1•10^6/ml
Text: as §1

## N-Benzyl-N-(C₈-C₁₈-alkyl)-N,N-dimethylammoniumchlorid [Benzalkoniumchlorid, reference compound]
[1]; in vivo
  Klinische Befunde: 4 Befunde
[2]
  okulare Läsionen: 4 von 6

## N-Benzyl-N-(gemischtes C₈-C₁₈-Alkyl)-N,N-bis-(2-hydroxyethyl)-ammoniumchlorid
[2]
  okulare Läsionen: keine okularen Läsionen

## CCCCCCCCCCCC[N+](CCO)(CCO)Cc1ccccc1.[Cl-] [Benzoxoniumchlorid, N-Benzyl-N-(n-dodecyl)-N,N-bis-(2-hydroxyethyl)-ammoniumchlorid]
[3]; contact time 6 h
  Reduktion des Wachstums: k. W.
[3]; contact time 24 h
  Reduktion des Wachstums: k. W.
[3]; Candida albicans, 10 min, contact time 10 min, read-out: Reduktion des Wachstums
  killing at 100 µg/mL: 100%
[4]; contact time 6 h
  Reduktion des Wachstums: k. W.
[4]; contact time 24 h
  Reduktion des Wachstums: k. W.
[4]; Escherichia coli, 10 min, contact time 10 min, read-out: Reduktion des Wachstums
  killing at 100 µg/mL: 100%
[1]; 0,01 % solution, 5 instillations/animal/day at 90 min intervals into the conjunctival sac for 5 days, eyes examined at end of test (conjunctival redness, corneal opacity, secretion, conjunctival swelling)
  Klinische Befunde: keine Befunde
[5]; contact time 10 min
  Reduktion des Wachstums: k. W.
[5]; contact time 6 h
  Reduktion des Wachstums: k. W.
[5]; contact time 24 h
  Reduktion des Wachstums: k. W.
[6]; contact time 10 min
  Reduktion des Wachstums: k. W.
[6]; contact time 6 h
  Reduktion des Wachstums: k. W.
[6]; contact time 24 h
  Reduktion des Wachstums: k. W.
